Experimental data reported in patent US9943529B2, “Methods for reducing cellular proliferation and treating certain diseases” (BRIGHAM YOUNG UNIVERSITY, priority 2013, dated 2018).

What was measured:
Conditions in all cases: 10 μM, 48 hours
CCRF-CEM = experiment: NCI screen antiproliferative activity, sulforhodamine B, Leukemia panel; format: cell-based, human
Method: (§1) The antiproliferative activity of compounds were determined in the National Cancer Institute (NCI) screen (Drug. Dev. Res. 1995, 34, 91-109; J. Natl. Cancer Inst. 1990, 82, 1107-1112; Drug Dev. Res. 1995, 34, 91-109). For certain compounds, cells of approximately 60 different human cancer cell lines were incubated for 48 hours with five 10-fold dilutions of the tested compounds starting from 100 μM and then treated with sulforhodamine B dye. For other compounds, cells of approximately 60 different human cancer cell lines were incubated for 48 hours with a concentration of 10 μM test compound. The ratios of recorded optical densities relative to that of the control were plotted as a function of the common logarithm of the tested compound concentrations or growth percent (for single concentration tests). The interpolation between the points located above and below the 50% percentage growth provided 50% growth inhibition (GI50) values. Total growth inhibition (TGI) and 50% lethal concentrations (LC50) were also calculated using reported methods. A “-” means not tested and/or not-determined.

HL-60(TB) = experiment: as above; format: cell-based, human
Method: as §1

K-562 = experiment: as above; format: cell-based, human
MOLT-4 = experiment: as above; format: cell-based, human
RPMI-8226 = experiment: as above; format: cell-based, human
SR = experiment: as above; format: cell-based, human
COLO 205 = experiment: NCI screen antiproliferative activity, sulforhodamine B, Colon Cancer panel; format: cell-based, human
KM12 = experiment: as above; format: cell-based, human
SW-620 = experiment: as above; format: cell-based, human
LOX IMVI = experiment: NCI screen antiproliferative activity, sulforhodamine B, Melanoma panel; format: cell-based, human
MALME-3M = experiment: as above; format: cell-based, human
SK-MEL-5 = experiment: as above; format: cell-based, human
NCI/ADR-RES = experiment: NCI screen antiproliferative activity, sulforhodamine B, Ovarian Cancer panel; format: cell-based, human
Method: as §1

A498 = experiment: NCI screen antiproliferative activity, sulforhodamine B, Renal Cancer panel; format: cell-based, human
Method: as §1

HS 578T = experiment: NCI screen antiproliferative activity, sulforhodamine B, Breast Cancer panel; format: cell-based, human
MDA-MB-468 = experiment: as above; format: cell-based, human
Method: as §1

A549/ATCC = tested on: A549/ATCC
HOP-62 = tested on: HOP-62
HOP-92 = tested on: HOP-92
NCI-H226 = tested on: NCI-H226
NCI-H23 = tested on: NCI-H23
NCI-H322M = tested on: NCI-H322M
NCI-H460 = tested on: NCI-H460
NCI-H522 = tested on: NCI-H522
HCC-2998 = tested on: HCC-2998
HCT-116 = tested on: HCT-116
HCT-15 = tested on: HCT-15
HT29 = tested on: HT29
SF-268 = tested on: SF-268
SF-539 = tested on: SF-539
SNB-19 = tested on: SNB-19
SNB-75 = tested on: SNB-75
M14 = tested on: M14
SK-MEL-28 = tested on: SK-MEL-28
UACC-62 = tested on: UACC-62
IGROV1 = tested on: IGROV1
OVCAR-3 = tested on: OVCAR-3
OVCAR-4 = tested on: OVCAR-4
OVCAR-5 = tested on: OVCAR-5
OVCAR-8 = tested on: OVCAR-8
SK-OV-3 = tested on: SK-OV-3
786-0 = tested on: 786-0
ACHN = tested on: ACHN
CAKI-1 = tested on: CAKI-1
RXF 393 = tested on: RXF 393
SN12C = tested on: SN12C
UO-31 = tested on: UO-31
PC-3 = tested on: PC-3
DU-145 = tested on: DU-145
MCF7 = tested on: MCF7
MDA-MB-231/ATCC = tested on: MDA-MB-231/ATCC
MDA-MB-435 = tested on: MDA-MB-435
BT-549 = tested on: BT-549
T-47D = tested on: T-47D

CCCCCN(CCCCC)CCC[C@@H](C)[C@H]1CC[C@H]2[C@@H]3[C@H](OCCCN)C[C@@H]4C[C@H](OCCCN)CC[C@]4(C)[C@H]3C[C@H](OCCCN)[C@]12C [CSA-90]
Growth Percent (CCRF-CEM): 15.29%
Growth Percent (HL-60(TB)): −16.84%
Growth Percent (K-562): −19.42%
Growth Percent (MOLT-4): 41.11%
Growth Percent (RPMI-8226): −17.73%
Growth Percent (SR): 19.21%
Growth Percent (COLO 205): 52.08%
Growth Percent (KM12): 22.46%
Growth Percent (SW-620): 45.90%
Growth Percent (LOX IMVI): 3.00%
Growth Percent (MALME-3M): 62.21%
Growth Percent (SK-MEL-5): 25.14%
Growth Percent (NCI/ADR-RES): 76.04%
Growth Percent (A498): 92.77%
Growth Percent (HS 578T): 66.91%
Growth Percent (MDA-MB-468): 71.06%
Growth Percent (A549/ATCC): 55.21%
Growth Percent (HOP-62): 48.28%
Growth Percent (HOP-92): 50.03%
Growth Percent (NCI-H226): 75.25%
Growth Percent (NCI-H23): 49.16%
Growth Percent (NCI-H322M): 24.61%
Growth Percent (NCI-H460): 45.20%
Growth Percent (NCI-H522): 28.85%
Growth Percent (HCC-2998): 59.63%
Growth Percent (HCT-116): 22.71%
Growth Percent (HCT-15): 72.31%
Growth Percent (HT29): 24.49%
Growth Percent (SF-268): 87.47%
Growth Percent (SF-539): −21.94%
Growth Percent (SNB-19): 61.03%
Growth Percent (SNB-75): 70.61%
Growth Percent (M14): 42.81%
Growth Percent (SK-MEL-28): 27.91%
Growth Percent (UACC-62): 13.55%
Growth Percent (IGROV1): 29.55%
Growth Percent (OVCAR-3): 107.13%
Growth Percent (OVCAR-4): 85.16%
Growth Percent (OVCAR-5): 66.15%
Growth Percent (OVCAR-8): 55.32%
Growth Percent (SK-OV-3): 93.22%
Growth Percent (786-0): 61.11%
Growth Percent (ACHN): 54.72%
Growth Percent (CAKI-1): 75.81%
Growth Percent (RXF 393): 87.11%
Growth Percent (SN12C): 54.27%
Growth Percent (UO-31): 65.22%
Growth Percent (PC-3): 80.53%
Growth Percent (DU-145): 76.50%
Growth Percent (MCF7): 74.77%
Growth Percent (MDA-MB-231/ATCC): 36.97%
Growth Percent (MDA-MB-435): −13.61%
Growth Percent (BT-549): 54.97%
Growth Percent (T-47D): 68.11%
